Test results reported in patent publication US8962842B2, “2-pyridone antimicrobial compositions” (priority 2010, dated 2015).
Like-named read-outs stand apart in the source and are kept apart here.

Legend:
[1] = tested on: Escherichia coli (6 strains); assay: MIC range, broader panel of Quotient Bioresearch strains (Table 4); assay type: cell-based
[2] = tested on: Klebsiella pneumonia (4 strains); assay: as above; assay type: cell-based; details: Klebsiella pneumoniae
[3] = tested on: Pseudomonas aeruginosa (12 strains); assay: as above; assay type: cell-based
[4] = tested on: Burkholderia cepacia (5 strains); assay: as above; assay type: cell-based
[5] = tested on: Haemophilus influenza (5 strains); assay: as above; assay type: cell-based, Haemophilus influenzae
[6] = tested on: Acinetobacter baumannii (12 strains); assay: as above; assay type: cell-based
[7] = tested on: Acinetobacter baumannii, quinolone-resistant strains (Quotient Bioresearch catalogue); assay: MIC against pathogens resistant against quinolones (Table 5); assay type: cell-based; details: Acinetobacter baumannii, GN54
[8] = molecular target: bacterial gyrase (Escherichia coli, UniProt P0AES4+P0AES6); assay: Inhibition of topoisomerases activity in vitro, Topogen protocol TG1003 (Table 7); assay type: biochemical
Chain of bacterial gyrase (P0AES4 whole entry, one chain of several): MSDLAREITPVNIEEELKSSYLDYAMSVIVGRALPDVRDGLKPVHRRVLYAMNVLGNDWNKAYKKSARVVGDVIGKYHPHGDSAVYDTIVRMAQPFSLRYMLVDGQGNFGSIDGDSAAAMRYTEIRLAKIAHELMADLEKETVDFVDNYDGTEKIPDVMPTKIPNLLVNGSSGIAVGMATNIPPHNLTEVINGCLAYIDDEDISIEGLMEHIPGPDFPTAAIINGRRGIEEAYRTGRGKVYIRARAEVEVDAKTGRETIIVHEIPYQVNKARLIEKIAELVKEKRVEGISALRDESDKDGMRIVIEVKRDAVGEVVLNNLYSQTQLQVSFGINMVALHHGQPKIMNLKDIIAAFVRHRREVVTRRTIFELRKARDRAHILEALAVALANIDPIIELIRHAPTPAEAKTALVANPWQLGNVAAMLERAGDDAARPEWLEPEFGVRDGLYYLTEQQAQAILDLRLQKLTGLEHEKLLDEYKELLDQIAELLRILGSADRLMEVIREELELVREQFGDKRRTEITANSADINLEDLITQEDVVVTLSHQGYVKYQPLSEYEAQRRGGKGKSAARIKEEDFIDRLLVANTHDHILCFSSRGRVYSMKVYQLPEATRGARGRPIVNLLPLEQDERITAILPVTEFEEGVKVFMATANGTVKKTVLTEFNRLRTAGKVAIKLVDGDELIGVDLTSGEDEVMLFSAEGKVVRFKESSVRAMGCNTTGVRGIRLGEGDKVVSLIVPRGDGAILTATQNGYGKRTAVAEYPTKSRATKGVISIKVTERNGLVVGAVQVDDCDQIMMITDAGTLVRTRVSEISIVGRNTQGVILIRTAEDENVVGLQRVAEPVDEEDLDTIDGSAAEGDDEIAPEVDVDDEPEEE

[9] = molecular target: bacterial topoisomerase IV (Escherichia coli, UniProt P0AFI2+P20083); assay: Inhibition of topoisomerases activity in vitro, Topogen protocol TG1007 (Table 7); assay type: biochemical
Chain of bacterial topoisomerase IV (P20083 whole entry): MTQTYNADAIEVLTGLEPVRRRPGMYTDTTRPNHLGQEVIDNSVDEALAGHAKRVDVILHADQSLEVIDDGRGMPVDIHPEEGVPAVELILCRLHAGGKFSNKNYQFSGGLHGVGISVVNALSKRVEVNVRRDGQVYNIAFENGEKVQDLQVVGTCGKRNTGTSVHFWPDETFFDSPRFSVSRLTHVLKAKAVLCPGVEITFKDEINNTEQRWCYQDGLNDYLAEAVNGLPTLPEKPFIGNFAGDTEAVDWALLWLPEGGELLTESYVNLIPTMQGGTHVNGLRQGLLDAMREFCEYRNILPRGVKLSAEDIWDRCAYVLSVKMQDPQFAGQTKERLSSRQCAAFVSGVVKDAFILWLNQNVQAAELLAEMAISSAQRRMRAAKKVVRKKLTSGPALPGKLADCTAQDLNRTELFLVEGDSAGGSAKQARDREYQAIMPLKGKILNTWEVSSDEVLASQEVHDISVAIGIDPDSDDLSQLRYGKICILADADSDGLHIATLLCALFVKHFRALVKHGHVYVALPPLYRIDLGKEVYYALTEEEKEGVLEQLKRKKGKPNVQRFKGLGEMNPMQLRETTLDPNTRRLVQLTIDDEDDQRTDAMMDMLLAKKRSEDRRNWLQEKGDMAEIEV
Chain of bacterial topoisomerase IV (P0AFI2 whole entry): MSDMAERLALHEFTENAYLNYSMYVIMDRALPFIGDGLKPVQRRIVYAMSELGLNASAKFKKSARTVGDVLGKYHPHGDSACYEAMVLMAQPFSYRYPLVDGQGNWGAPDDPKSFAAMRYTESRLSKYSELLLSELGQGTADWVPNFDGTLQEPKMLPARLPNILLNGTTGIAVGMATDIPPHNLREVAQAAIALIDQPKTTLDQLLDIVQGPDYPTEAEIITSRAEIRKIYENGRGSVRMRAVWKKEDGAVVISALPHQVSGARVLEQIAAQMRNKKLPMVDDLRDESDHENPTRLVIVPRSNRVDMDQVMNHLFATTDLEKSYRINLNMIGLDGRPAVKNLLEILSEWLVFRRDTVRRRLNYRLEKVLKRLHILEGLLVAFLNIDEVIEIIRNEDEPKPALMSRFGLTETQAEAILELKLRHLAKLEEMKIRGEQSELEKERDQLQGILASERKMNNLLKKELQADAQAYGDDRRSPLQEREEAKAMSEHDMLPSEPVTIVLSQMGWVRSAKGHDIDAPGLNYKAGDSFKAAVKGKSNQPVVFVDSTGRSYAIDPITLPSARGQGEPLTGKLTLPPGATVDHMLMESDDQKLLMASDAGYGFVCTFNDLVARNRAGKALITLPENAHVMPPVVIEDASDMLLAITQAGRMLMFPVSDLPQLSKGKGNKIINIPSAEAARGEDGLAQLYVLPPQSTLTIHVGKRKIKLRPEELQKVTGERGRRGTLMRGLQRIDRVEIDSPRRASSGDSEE

[10] = molecular target: T1, human topoisomerase I (Homo sapiens, UniProt P11387); assay: Inhibition of topoisomerases activity in vitro, Topogen protocol TG1015 (Table 7); assay type: biochemical; details: read-out: IC50 hTopo I Assay
T1 construct: purchased Topogen Inc., Port Orange, USA TG1015
T1 sequence (P11387 1-765): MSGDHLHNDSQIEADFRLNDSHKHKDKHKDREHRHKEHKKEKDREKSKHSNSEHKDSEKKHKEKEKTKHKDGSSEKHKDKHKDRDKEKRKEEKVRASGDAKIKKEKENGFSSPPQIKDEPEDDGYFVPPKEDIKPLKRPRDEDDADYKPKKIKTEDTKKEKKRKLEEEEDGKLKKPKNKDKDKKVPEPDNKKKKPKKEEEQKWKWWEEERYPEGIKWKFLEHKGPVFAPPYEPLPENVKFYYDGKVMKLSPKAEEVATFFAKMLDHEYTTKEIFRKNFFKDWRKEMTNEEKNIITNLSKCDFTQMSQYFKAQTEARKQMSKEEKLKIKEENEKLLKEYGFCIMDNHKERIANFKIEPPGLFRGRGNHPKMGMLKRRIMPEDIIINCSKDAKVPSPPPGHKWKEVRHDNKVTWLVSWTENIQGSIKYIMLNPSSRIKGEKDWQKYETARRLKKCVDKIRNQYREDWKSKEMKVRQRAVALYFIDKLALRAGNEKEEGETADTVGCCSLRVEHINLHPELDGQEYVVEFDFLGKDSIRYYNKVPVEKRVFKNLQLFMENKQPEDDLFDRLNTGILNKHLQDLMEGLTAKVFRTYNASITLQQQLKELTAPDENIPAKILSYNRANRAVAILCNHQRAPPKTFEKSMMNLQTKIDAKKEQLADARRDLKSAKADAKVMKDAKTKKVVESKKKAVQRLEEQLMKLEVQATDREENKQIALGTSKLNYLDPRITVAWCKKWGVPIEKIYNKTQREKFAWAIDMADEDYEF

[11] = Metabolic stability in liver microsomes +/- S9 fraction (Table 8); assay type: in vitro ADME; details: 1 μM
Method: Metabolic stability of a select number of examples was tested in liver microsomes+/−addition of S9 fraction as described by Kuhnz, W. and Gieschen, H. (1998), Drug Metab. Dispos., 1120-1127. Test concentration was 1 μM and HPLC/MS-MS was used for detection.

[12] = physchem; assay type: physicochemical; details: thermodynamic from solid
Method: The solutions were incubated at room temperature for 24 hours before quantification by HPLC detection. Aqueous solubility was evaluated in simulated gastric fluid (SGF), simulated intestinal fluid (SIF) and phosphate buffer saline (PBS) pH 7.4. Aqueous solubility is expressed in Table 11 as mean solubility in μM.

[13] = tested on: Staphylococcus aureus (16 strains); assay: MIC range, broader panel of Quotient Bioresearch strains (Table 3)
[14] = tested on: Enterococcus faecalis (5 strains); assay: as above
[15] = tested on: Enterococcus faecium (3 strains); assay: as above
[16] = tested on: Streptococcus pneumonia (5 strains); assay: as above; details: Streptococcus pneumoniae
[17] = tested on: Streptococcus pyogenes (4 strains); assay: as above
[18] = tested on: Group C Streptococcus (4 strains); assay: as above

## Cc1c(-c2cc(F)c(N)cc2F)ccn2c(=O)c(C(=O)[O-])cc(C3CC3)c12.[K+] [Example 28 K salt, potassium 8-(4-amino-2,5-difluoro-phenyl)-1-cyclopropyl-9-methyl-4-oxo-4H-quinolizine-3-carboxylate]
[1]; read-out: MIC Range High, Escherichia coli (6 strains)
  MIC: 32 µg/mL
[1]; read-out: MIC Range Low, Escherichia coli (6 strains)
  MIC: 0.03 µg/mL
[1]; read-out: MIC Range Median, Escherichia coli (6 strains)
  MIC50: 16 µg/mL
[2]; read-out: MIC Range High, Klebsiella pneumonia (4 strains)
  MIC: > 32 µg/mL
[2]; read-out: MIC Range Low, Klebsiella pneumonia (4 strains)
  MIC: 0.12 µg/mL
[2]; read-out: MIC Range Median, Klebsiella pneumonia (4 strains)
  MIC50: 18 µg/mL
[3]; read-out: MIC Range High, Pseudomonas aeruginosa (12 strains)
  MIC: > 32 µg/mL
[3]; read-out: MIC Range Low, Pseudomonas aeruginosa (12 strains)
  MIC: 1 µg/mL
[3]; read-out: MIC Range Median, Pseudomonas aeruginosa (12 strains)
  MIC50: 6 µg/mL
[4]; read-out: MIC Range High, Burkholderia cepacia (5 strains)
  MIC: 0.5 µg/mL
[4]; read-out: MIC Range Low, Burkholderia cepacia (5 strains)
  MIC: 0.12 µg/mL
[4]; read-out: MIC Range Median, Burkholderia cepacia (5 strains)
  MIC50: 0.25 µg/mL
[5]; 16 h, Median of the strain panel
  MIC50: ≤ 0.015 µg/mL
[5]; High of the strain panel, read-out: MIC Range High, Haemophilus influenza (5 strains)
  MIC: ≤ 0.015 µg/mL
[5]; Low of the strain panel, read-out: MIC Range Low, Haemophilus influenza (5 strains)
  MIC: ≤ 0.015 µg/mL
[6]; read-out: MIC Range High, Acinetobacter baumannii (12 strains)
  MIC: 16 µg/mL
[6]; read-out: MIC Range Low, Acinetobacter baumannii (12 strains)
  MIC: 0.06 µg/mL
[6]; read-out: MIC Range Median, Acinetobacter baumannii (12 strains)
  MIC50: 8 µg/mL
[7]
  MIC: 2 µg/mL
[8]
  IC50: 0.68 µM
[9]
  IC50: ≤ 8.45 µM
[10]
  IC50: 135 µM
[11]; Liver microsomes + S9, human
  Mean Parent Remaining: 93%
[11]; Liver microsomes + S9, mouse
  Mean Parent Remaining: 48%
[11]; Liver microsomes, human
  Mean Parent Remaining: 97%
[11]; Liver microsomes, mouse
  Mean Parent Remaining: 30%
[12]; fassgf or other biorelevant
  solubility at 24 h: 153 µM
[12]; pH 7.4, aqueous buffer
  solubility at 24 h: 6 µM
[12]; simulated gastric fluid
  solubility at 24 h: 12 µM
[13]; read-out: MIC Range High, Staphylococcus aureus (16 strains)
  MIC: 0.12 µg/mL
[13]; read-out: MIC Range Low, Staphylococcus aureus (16 strains)
  MIC: ≤ 0.015 µg/mL
[13]; read-out: MIC Range Median, Staphylococcus aureus (16 strains)
  MIC50: 0.06 µg/mL
[14]; read-out: MIC Range High, Enterococcus faecalis (5 strains)
  MIC: 0.5 µg/mL
[14]; read-out: MIC Range Low, Enterococcus faecalis (5 strains)
  MIC: ≤ 0.015 µg/mL
[14]; read-out: MIC Range Median, Enterococcus faecalis (5 strains)
  MIC50: 0.25 µg/mL
[15]; read-out: MIC Range Low, Enterococcus faecium (3 strains)
  MIC: 0.12 µg/mL
[15]; read-out: MIC Range Median, Enterococcus faecium (3 strains)
  MIC50: 0.25 µg/mL
[16]; read-out: MIC Range Low, Streptococcus pneumonia (5 strains)
  MIC: 0.03 µg/mL
[16]; read-out: MIC Range Median, Streptococcus pneumonia (5 strains)
  MIC50: 0.06 µg/mL
[17]; read-out: MIC Range High, Streptococcus pyogenes (4 strains)
  MIC: 0.06 µg/mL
[17]; read-out: MIC Range Low, Streptococcus pyogenes (4 strains)
  MIC: 0.03 µg/mL
[17]; read-out: MIC Range Median, Streptococcus pyogenes (4 strains)
  MIC50: 0.06 µg/mL
[18]; read-out: MIC Range High, Group C Streptococcus (4 strains)
  MIC: 0.06 µg/mL
[18]; read-out: MIC Range Low, Group C Streptococcus (4 strains)
  MIC: 0.03 µg/mL
[18]; read-out: MIC Range Median, Group C Streptococcus (4 strains)
  MIC50: 0.045 µg/mL
